This is an account of results in EP1561465A2, “Methods of use of fluoroquinolone compounds against bacteria” (LG Life Sciences, Ltd., priority 1999, dated 2001).

Converted amounts (≈) assume the structure as drawn. Where two headings read alike, the source gives them in different places. A value given as a limit tells only on which side of the number the result lay.

Holding throughout (format): cell-based
The test system of assay [1] is Serratia marcescens. Nature of the assay: MIC by NCCLS broth microdilution, 1100 Japanese clinical isolates 1997-1998. Background: Dilution methods test growth across graded concentrations, often in twofold steps.
Assay [2] relates to Klebsiella pneumoniae. Description: MIC by NCCLS reference broth microdilution, 450 respiratory tract pathogens. The conditions noted are these: for MIC50 / MIC90: Klebsiella pneumoniae.
Assay [3] relates to Proteus mirabilis. Description: MIC by NCCLS broth microdilution, 1100 Japanese clinical isolates 1997-1998. The conditions noted are these: Proteus mirabilis (n=30); for MIC50: read-out: MIC50; for MIC90: read-out: MIC90.
Assay [4] relates to Morganella morganii. The description is as above. The conditions noted are these: for MIC90: read-out: MIC90.
Where [5] appears, read: extended spectrum β-lactamase negative (n = 30).
The mark [6] stands for this setting: extended spectrum β-lactamase positive (n = 20).

`C[C@@H]1CN(c2c(F)c(N)c3c(=O)c(C(=O)O)cn(C4CC4)c3c2F)C[C@H](C)N1` [Sparfloxacin, sparfloxacin]: the MIC90 in assay [1] (Serratia marcescens (n=30)) was determined as 2 µg/mL (≈ 5.1 µM); in assay [2] (Klebsiella pneumoniae (n = 50)), 0.5 µg/mL (≈ 1.27 µM); in assay [2] (setting [5]), 0.12 µg/mL (≈ 0.306 µM); in assay [2] (setting [6]) it was 0.5 µg/mL (≈ 1.27 µM); in assay [3], 0.5 µg/mL (≈ 1.27 µM); in assay [4] (Morganella morganii (n=40)) it was 0.5 µg/mL (≈ 1.27 µM). Moreover, the “MIC Range” value in assay [1] (Serratia marcescens (n=30)) was 0.063 to 64 µg/mL; in assay [2] (Klebsiella pneumoniae (n = 50)), at most 0.0075 to 1 µg/mL; in assay [2] (setting [5]), at most 0.0075 to 0.25 µg/mL; in assay [2] (setting [6]), 0.03 to 0.5 µg/mL; in assay [3], 0.063 to 16 µg/mL; in assay [4] (Morganella morganii (n=40)), 0.063 to 16 µg/mL. Besides, the MIC50 in assay [1] (Serratia marcescens (n=30), read-out: MIC50) was 0.25 µg/mL (≈ 0.637 µM); in assay [2] (Klebsiella pneumoniae (n = 50)) it was 0.06 µg/mL (≈ 0.153 µM); in assay [2] (setting [5]), 0.03 µg/mL (≈ 0.0765 µM); in assay [2] (setting [6]), 0.5 µg/mL (≈ 1.27 µM); in assay [3] it was 0.25 µg/mL (≈ 0.637 µM); in assay [4] (Morganella morganii) it was 0.125 µg/mL (≈ 0.319 µM).
Regarding `NC1CCN(c2nc3c(cc2F)c(=O)c(C(=O)O)cn3-c2ccc(F)cc2F)C1` (centres unmarked) [Tosufloxacin, tosufloxacin], the MIC50 in assay [1] (Serratia marcescens) is 0.125 µg/mL (≈ 0.309 µM); in assay [3], 0.25 µg/mL (≈ 0.618 µM); in assay [4] (Morganella morganii (n=40), read-out: MIC50), 0.063 µg/mL (≈ 0.156 µM). For the same molecule, the figures for the MIC90 in assay [1] (Serratia marcescens (n=30)), in assay [3] and in assay [4] (Morganella morganii (n=40)) were 1 µg/mL (≈ 2.47 µM), 0.5 µg/mL (≈ 1.24 µM) and 0.25 µg/mL (≈ 0.618 µM), respectively. The “MIC Range” value in assay [3] fell in the range of 0.063 to 16 µg/mL; in assay [4] (Morganella morganii (n=40)), 0.032 to 16 µg/mL.

For orientation: MIC90 means the lowest concentration that inhibits either 90% of growth or 90% of the strains tested, depending on the study. What is called MIC50 is the lowest concentration that inhibits either 50% of growth or 50% of the strains tested, depending on the study.
